Target: HIV-1 RT-associated RNase H activity (Human immunodeficiency virus type 1 group M subtype B, UniProt P04585)
Assay: biochemical
Conditions: not given

Compound | IC50 [µM]
CCOC(=O)C(=O)CC(=O)/C=C/c1cccn1Cc1ccccc1OC [7m, 6-[1-(2-Methoxyphenyl)methyl-1H-pyrrol-2-yl]-2,4-dioxo-5-hexenoic Acid Ethyl Ester] | > 100
CCOC(=O)C(=O)CC(=O)/C=C/c1cccn1Cc1ccccc1OCC [7o, 6-[1-(2-Ethoxyphenyl)methyl-1H-pyrrol-2-yl]-2,4-dioxo-5-hexenoic Acid Ethyl Ester] | > 100

Target: recombinant HIV-1 IN ST activity (Human immunodeficiency virus type 1 group M subtype B, UniProt P04585)
Assay: biochemical
Conditions: not given

Compound | IC50 [µM]
CCOC(=O)C(=O)CC(=O)/C=C/c1cccn1Cc1ccc(C#N)cc1 [7l, 6-[1-(4-Cyanophenyl)methyl-1H-pyrrol-2-yl]-2,4-dioxo-5-hexenoic Acid Ethyl Ester] | > 111
CCOC(=O)C(=O)CC(=O)/C=C/c1cccn1Cc1ccc(Cl)cc1Cl [7w, 6-[1-(2,4-Dichlorophenyl)methyl-1H-pyrrol-2-yl]-2,4-dioxo-5-hexenoic Acid Ethyl Ester] | > 111

System: HIV-1 (IIIB) in MT-4 cells
Assay: not given
Conditions: HIV-1-induced cytopathic effect in MT-4 cells

Compound | activity in the CPE assay
CCOC(=O)C(=O)CC(=O)/C=C/c1cccn1Cc1ccccc1 [7a, 6-[1-(Phenyl)methyl-1H-pyrrol-2-yl]-2,4-dioxo-5-hexenoic Acid Ethyl Ester] | antiviral
CCOC(=O)C(=O)CC(=O)/C=C/c1cccn1Cc1ccccc1F [7e, 6-[1-(2-Fluorophenyl)methyl-1H-pyrrol-2-yl]-2,4-dioxo-5-hexenoic Acid Ethyl Ester] | antiviral
CCOC(=O)C(=O)CC(=O)/C=C/c1cccn1Cc1cccc(F)c1 [7f, 6-[1-(3-Fluorophenyl)methyl-1H-pyrrol-2-yl]-2,4-dioxo-5-hexenoic Acid Ethyl Ester] | antiviral
CCOC(=O)C(=O)CC(=O)/C=C/c1cccn1Cc1ccc(F)cc1 [7g, 6-[1-(4-Fluorophenyl)methyl-1H-pyrrol-2-yl]-2,4-dioxo-5-hexenoic Acid Ethyl Ester] | antiviral
O=C(/C=C/c1cccn1Cc1ccccc1)CC(=O)C(=O)O [8a, 6-[1-(Phenyl)methyl-1H-pyrrol-2-yl]-2,4-dioxo-5-hexenoic Acid] | antiviral
O=C(/C=C/c1cccn1Cc1ccc(F)cc1)CC(=O)C(=O)O [8g, 6-[1-(4-Fluorophenyl)methyl-1H-pyrrol-2-yl]-2,4-dioxo-5-hexenoic Acid] | antiviral
O=C(/C=C/c1cccn1Cc1ccc(Cl)cc1)CC(=O)C(=O)O [8i, 6-[1-(4-Chlorophenyl)methyl-1H-pyrrol-2-yl]-2,4-dioxo-5-hexenoic Acid] | inactive

System: RT-associated DNA polymerase function
Assay: not given
Conditions: cited from earlier work

Compound | activity against RT-associated DNA polymerase function
CCOC(=O)C(=O)CC(=O)/C=C/c1cccn1Cc1ccc(F)cc1 [7g, 6-[1-(4-Fluorophenyl)methyl-1H-pyrrol-2-yl]-2,4-dioxo-5-hexenoic Acid Ethyl Ester] | inactive

— article PMC7581279 (Journal of medicinal chemistry, 2013)
